In patent publication US20150209354A1, “CASEIN KINASE 1 INHIBITORS FOR THE TREATMENT OF B-CELL CHRONIC LYMPHOCYTIC|LEUKEMIA” (MASARYKOVA UNIVERZITA, priority 2012, published 2015):
“Also recorded” adds a separate entry of the source.

Tests used:
primary CLL cells [1] = test: Migration of pre-treated primary CLL cells into tissues of transplanted NSG mice (FACS of calcein-positive cells); assay type: in vivo; settings: cells pre-treated 20 hours with 100 μM D4476; intraperitoneal injection; tissues analysed after 24 hours; vs DMSO
Method: (§1) FIG. 3: CK1 controls the migration of CLL cells in vivo. (A) Layout of the experiment: CLL cells were obtained by purification from the samples of fresh blood from patients, stimulated and stained in vitro using green calcein. They were subsequently intraperitoneally injected to NSG mice. After 24 hours the murine tissues were examined for the presence of calcein-positive CLL cells using flow-cytometry (refer to the G1 cut-out in the typical dot plot distribution). (B) The rate of apoptosis in primary CLL cells after adding DMSO/D4476 (CK1 inh. I) was determined by the analysis of membrane potential of mitochondria using flow-cytometry while using tetramethylrhodamine ethyl ester (TMRE) stained with green calcein dye. […] The charts show the ratio of the CLL cells (the quantity of positive cells/total quantity of cells in the organ) treated by DMSO or D4476 (CK1 inh. I) that were obtained from the spleen (Ci), liver (Cii), and bone marrow (Ciii) of transplanted mice. […]
Freshly isolated human CLL lymphocytes (25×10^6 from the patient) were pre-treated for 20 hours with a CK1 inhibitor (100 μM, D4476, Calbiochem), and dimethylsulfoxide (DMSO, Sigma-Aldrich) as control. […] Samples of spleen, liver, and femoral bone marrow of mice were taken 24 hours after the injection and analyzed. Migration of calcein-positive CLL cells to these tissues was determined by FACS analysis (FACScalibur).

primary CLL cells [2] = test: Rate of apoptosis of primary CLL cells by mitochondrial membrane potential (TMRE/calcein flow cytometry); assay type: cell-based, human; settings: 100 μM D4476, 20 hours pre-treatment; TMRE and calcein staining; vs DMSO
Method: as §1
Freshly isolated human CLL lymphocytes (25×10^6 from the patient) were pre-treated for 20 hours with a CK1 inhibitor (100 μM, D4476, Calbiochem), and dimethylsulfoxide (DMSO, Sigma-Aldrich) as control. […] Samples of spleen, liver, and femoral bone marrow of mice were taken 24 hours after the injection and analyzed. Migration of calcein-positive CLL cells to these tissues was determined by FACS analysis (FACScalibur). […]

MEC1 cells [3] = test: Transwell migration of MEC1 cells to chemokines CCL19 and CCL21; assay type: cell-based, human; settings: D4476 100 μM overnight; CCL19 and CCL21 200 ng/ml; vs DMSO control
Method: FIG. 1: Migration of MEC1 cells which represents an in-vitro CLL model was investigated in the presence of chemokines CCL19 and CCL21 (200 ng/ml) using Transwell migration chamber. The rate of migration is expressed as a migration index. The MEC1 migration triggered by the chemokines CCL21 and CCL19 is blocked by CK1 inhibitors—D4476 (CK1 inh. I; 100 μM) and PF670462 (CK1 inh. II; 50 μM). The values in the FIGS. 1A and 1B represent the average and the standard error. Statistical significance was tested using One-way ANOVA and Tukey post-hoc test (*p<0.05, **p<0.01, ***p<0.001).
In this example, the MEC1 cell line was used, which is a well-defined cell line obtained from a CLL patient in a pro-lymphocytic transformation. The MEC1 line is used as a transplantation model of CLL. […]
Into the upper insert of HTS Transwell® 96-well plates (Corning Incorporated, Mexico) with polycarbonate membranes with the pore size of 5.0 μm, 0.5×10^6 MEC1 cells were seeded. […] The migration to chemokine was then analyzed using the Coulter Counter instrument (model FN, Coulter Electronics, Fla., USA). The migration index was calculated as the number of cells (treated or non-treated) migrating to the chemokine divided by the number of cells migrating only to the control medium.

MEC1 cells [4] = test: Chemokine-controlled transendothelial invasion of MEC1 cells through HUVEC layer (Transwell); assay type: cell-based, human; settings: D4476 100 μM overnight, HUVEC-covered Transwell
Method: FIG. 2: Transendothelial invasiveness of the MEC1 cells was tested in the Transwell migration chamber in an arrangement where the upper chamber was covered with one layer of HUVEC endothelial cells. The rate of invasiveness (determined as the migration index) of the MEC1 cells was analyzed in the presence of the chemokine CCL19, Wnt5a, or in combination of both substances. The positive effect of CCL19 to the transendothelial migration of MEC1 was inhibited by addition of D4476 (CK1 inh. I). Statistical significance was tested using One-way ANOVA test and Tukey post-hoc test (***p<0.001). Each experiment was independently repeated three-times.
In the complex environment of the human body, cells react to the attractants and have to pass through extra-cellular matrix or endothelial barrier, which is a process known as invasion. […]
Into the upper insert of HTS Transwell® 96-well plates (Corning Incorporated, Mexico) with polycarbonate membranes with the pore size of 5.0 μm, covered with HUVEC (human umbilical vein endothelial cells monolayer), 0.5×10^6 MEC1 cells were seeded. […] The migration to chemokine was then analyzed using the Coulter Counter instrument (model FN, Coulter Electronics, Fla., USA). The migration index was calculated as the number of cells (treated or non-treated) migrating to the chemokine divided by the number of cells migrating only to the control medium.

## NC(=O)c1ccc(-c2nc(-c3ccc4c(c3)OCCO4)c(-c3ccccn3)[nH]2)cc1 [D4476]
Primary CLL cells [1]
  migration of CLL cells to the spleen, liver and bone marrow: reduced
Primary CLL cells [2]
  rate of apoptosis in primary CLL cells: does not alter the rate of apoptosis; also recorded: without an increase of cell apoptosis being detected
MEC1 cells [3]
  MEC1 migration (migration index) triggered by the chemokines CCL21 and CCL19: blocked
MEC1 cells [4]
  CCL19-induced transendothelial migration (invasiveness, migration index) of MEC1 cells: inhibited
